From patent publication US6469028B1, “Synthesis and use of retinoid compounds having negative hormone and/or anatgonist activities” (Allergan, Inc., priority 1995, dated 2002)
pKd: −log10 of the molar value.

Legend:
Assay in all cases: Ligand binding assay
RARα = target: T1, RARα (Homo sapiens, UniProt P10276); design: expressed in transfected cells; host or cells: CV1 cells; conditions: read-out: Kd (nanomolar) RARα
T1 sequence (P10276 1-462): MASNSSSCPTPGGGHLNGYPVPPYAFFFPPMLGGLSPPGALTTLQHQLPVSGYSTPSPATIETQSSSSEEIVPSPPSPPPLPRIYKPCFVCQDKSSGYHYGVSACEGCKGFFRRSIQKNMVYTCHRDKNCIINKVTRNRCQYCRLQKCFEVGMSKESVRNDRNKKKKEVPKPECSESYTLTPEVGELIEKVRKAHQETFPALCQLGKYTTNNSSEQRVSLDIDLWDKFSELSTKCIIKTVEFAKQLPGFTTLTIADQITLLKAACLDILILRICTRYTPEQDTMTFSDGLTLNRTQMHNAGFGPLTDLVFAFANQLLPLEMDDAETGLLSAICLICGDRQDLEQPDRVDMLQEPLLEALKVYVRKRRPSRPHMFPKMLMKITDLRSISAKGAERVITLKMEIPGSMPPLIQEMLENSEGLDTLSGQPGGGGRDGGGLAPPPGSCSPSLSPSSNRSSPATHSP
Source text: (§1) A holoreceptor transactivation assay and a ligand binding assay which measure the antagonist/agonist like activity of the compounds of the invention, or their ability to bind to the several retinoid receptor subtypes, respectively, are described in published PCT Application No. WO93/11755 (particularly on pages 30-33 and 37-41) published on Jun. 24, 1993, the specification of which is also incorporated herein by reference. A description of the holoreceptor transactivation assay is also provided below.
(§2) CV1 cells (5,000 cells/well) were transfected with an RAR reporter plasmid MTV-TREp-LUC (50 ng) along with one of the RAR expression vectors (10 ng) in an automated 96-well format by the calcium phosphate procedure of Heyman et al. Cell 68: 397-406. For RXR-α and RXR-γ transactivation assays, an RXR-responsive reporter plasmid CRBPII-tk-LUC (50 ng) along with the appropriate RXR expression vectors (10 ng) was used substantially as described by Heyman et al. above, and Allegretto et al. J. Biol. Chem. 268: 26625-26633. For RXR-β transactivation assays, an RXR-responsive reporter plasmid CPRE-tk-LUC ([…]) along with RXR-β expression vector ([…]) was used as described in above. These reporters contain DRI elements from human CRBPII and certain DRI elements from promotor, respectively (see Mangelsdorf et al. The Retinoids: Biology Chemistry and Medicine, pp. 319-349, Raven Press Ltd., New York and Heyman et al., cited above). A β-galactosidase (50 ng) expression vector was used as an internal control in the transfections to normalize for variations in transfection efficiency. The cells were transfected in triplicate for 6 hours, followed by incubation with retinoids for 36 hours, and the extracts were assayed for luciferase and […] activities. The detailed experimental procedure for holoreceptor transactivations has been described in Heyman et al. above, and Allegretto et al. cited above. The results obtained in this assay are expressed in EC50 numbers, as they are also in the chimeric receptor transactivation assay. The Heyman et al. Cell 68: 397-406, Allegretto et al. J. Biol. Chem. 268: 26625-26633, and Mangelsdorf et al. The Retinoids: Biology, Chemistry, and Medicine, pp. 319-349, Raven Press Ltd., New York, are expressly incorporated herein by reference. The results of ligand binding assay are expressed in Kd numbers. (See Cheng et al. Biochemical Pharmacology 22: 3099-3108, expressly incorporated herein by reference.) […]

RARγ = target: T2, RARγ (Homo sapiens, UniProt P13631); design: expressed in transfected cells; host or cells: CV1 cells; conditions: read-out: Kd (nanomolar) RARγ
T2 sequence (P13631 1-454): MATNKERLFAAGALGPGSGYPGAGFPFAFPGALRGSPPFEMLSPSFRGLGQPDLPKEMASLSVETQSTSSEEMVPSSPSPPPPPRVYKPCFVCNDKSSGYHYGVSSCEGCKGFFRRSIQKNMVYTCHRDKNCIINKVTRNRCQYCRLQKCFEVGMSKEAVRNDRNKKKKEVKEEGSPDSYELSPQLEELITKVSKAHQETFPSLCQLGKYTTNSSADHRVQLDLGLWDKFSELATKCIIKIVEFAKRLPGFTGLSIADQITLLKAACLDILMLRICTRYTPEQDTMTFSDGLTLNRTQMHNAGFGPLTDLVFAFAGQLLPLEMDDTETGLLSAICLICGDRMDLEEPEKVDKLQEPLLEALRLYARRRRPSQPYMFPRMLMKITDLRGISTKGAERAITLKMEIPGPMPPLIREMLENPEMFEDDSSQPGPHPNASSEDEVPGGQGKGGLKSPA
Source text: as §1, §2

RARβ = target: T3, RARβ (Homo sapiens, UniProt P10826); conditions: read-out: Kd (nanomolar) RARβ
T3 sequence (P10826 1-455): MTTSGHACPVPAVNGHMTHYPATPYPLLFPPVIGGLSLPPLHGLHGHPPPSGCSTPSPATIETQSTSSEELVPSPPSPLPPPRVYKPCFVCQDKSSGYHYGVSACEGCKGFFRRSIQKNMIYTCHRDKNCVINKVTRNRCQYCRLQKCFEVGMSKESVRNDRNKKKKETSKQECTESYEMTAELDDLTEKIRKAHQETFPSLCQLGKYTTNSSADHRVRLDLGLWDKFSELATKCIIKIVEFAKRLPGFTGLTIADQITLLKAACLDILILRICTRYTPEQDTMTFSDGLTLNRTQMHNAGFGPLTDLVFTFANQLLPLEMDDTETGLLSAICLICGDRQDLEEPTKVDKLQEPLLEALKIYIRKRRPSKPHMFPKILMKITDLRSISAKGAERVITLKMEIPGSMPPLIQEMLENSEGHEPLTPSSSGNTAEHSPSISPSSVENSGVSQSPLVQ
Source text: as §1, §2

| SMILES | pKd (RARα) | pKd (RARγ) | pKd (RARβ) |
| --- | --- | --- | --- |
| Cc1ccc(C2=CCC(C)(C)c3ccc(C#Cc4ccc(C(=O)O)cc4)cc32)cn1 [Compound 18, 4-[(5,6-Dihydro-5,5-dimethyl-8-(2-methyl-5-pyridyl)-2-naphthalenyl)ethynyl]benzoic acid] | 7.62 | 7.62 | 7.96 |
| CC1(C)CC=C(c2ccccn2)c2cc(C#Cc3ccc(C(=O)O)cc3)ccc21 [Compound 19, 4-[(5,6-Dihydro-5,5-dimethyl-8-(2-pyridyl)-2-naphthalenyl)ethynyl]benzoic acid] | 6.25 | 6.18 | 6.68 |
| Cc1cccc(C2=CCC(C)(C)c3ccc(C#Cc4ccc(C(=O)O)cc4)cc32)c1 [Compound 20, 4-[(5,6-Dihydro-5,5-dimethyl-8-(3-methylphenyl)-2-naphthalenyl)ethynyl]benzoic acid] | 6.89 | 7.47 | 7.66 |
| CCc1ccc(C2=CCC(C)(C)c3ccc(C#Cc4ccc(C(=O)O)cc4)cc32)cc1 [Compound 21, 4-[(5,6-Dihydro-5,5-dimethyl-8-(4-ethylphenyl)-2-naphthalenyl)ethynyl]benzoic acid] | 7.80 | 7.89 | 8.05 |
| COc1ccc(C2=CCC(C)(C)c3ccc(C#Cc4ccc(C(=O)O)cc4)cc32)cc1 [Compound 22, 4-[(5,6-Dihydro-5,5-dimethyl-8-(4-methoxyphenyl)-2-naphthalenyl)ethynyl]benzoic acid] | 7.62 | 7.57 | 7.77 |
| CC1(C)CC=C(c2ccc(C(F)(F)F)cc2)c2cc(C#Cc3ccc(C(=O)O)cc3)ccc21 [Compound 23, 4-[(5,6-Dihydro-5,5-dimethyl-8-(4-trifluoromethylphenyl)-2-naphthalenyl)ethynyl]benzoic acid] | 7.49 | 7.51 | 7.60 |
| Cc1cc(C)cc(C2=CCC(C)(C)c3ccc(C#Cc4ccc(C(=O)O)cc4)cc32)c1 [Compound 24, 4-[(5 6-Dihydro-5,5-dimethyl-8-(3,5-dimethylphenyl)-2-naphthalenyl)ethynyl]benzoic acid] | 6.16 | 6.54 | 6.63 |
| CC1(C)CC=C(c2ccc(Cl)cc2)c2cc(C#Cc3ccc(C(=O)O)cc3)ccc21 [Compound 25, 4-[(5,6-Dihydro-5,5-dimethyl-8-(4-chlorophenyl)-2-naphthalenyl)ethynyl]benzoic acid] | 7.30 | 7.70 | 7.77 |
| CC1(C)CC=C(c2cccnc2)c2cc(C#Cc3ccc(C(=O)O)cc3)ccc21 [Compound 26, 4-[(5,6-Dihydro-5,5-dimethyl-8-(3-pyridyl)-2-naphthalenyl)ethynyl]benzoic acid] | 7.40 | 7.44 | 7.51 |

The next lines start with the values.

| pKd (RARα) | pKd (RARγ) | pKd (RARβ) | SMILES |
| --- | --- | --- | --- |
| 7.16 | 7.59 | 7.85 | Cc1ccccc1C1=CCC(C)(C)c2ccc(C#Cc3ccc(C(=O)O)cc3)cc21 [Compound 27, 4-[(5,6-Dihydro-5,5-dimethyl-8-(2-methylphenyl)-2-naphthalenyl)ethynyl]benzoic acid] |
| 6.17 | 6.63 | 7.11 | CC1(C)CC=C(c2cccc(O)c2)c2cc(C#Cc3ccc(C(=O)O)cc3)ccc21 [Compound 28, 4-[(5,6-Dihydro5,5-dimethyl-8-(3-hydroxyphenyl)-2-naphthalenyl)ethynyl]benzoic acid] |
| 6.63 | 7.10 | 7.32 | CC1(C)CC=C(c2ccc(O)cc2)c2cc(C#Cc3ccc(C(=O)O)cc3)ccc21 [Compound 29, 4-[(5,6-Dihydro-5,5-dimethyl-8-(4-hydroxyphenyl)-2-naphthalenyl)ethynyl]benzoic acid] |
| 6.17 | 6.66 | 6.85 | Cc1cnc(C2=CCC(C)(C)c3ccc(C#Cc4ccc(C(=O)O)cc4)cc32)s1 [Compound 30, 4-[(5,6-Dihydro-5,5-dimethyl-8-(5-methylthiazol-2-yl)-2-naphthalenyl)ethynyl]benzoic acid] |
| 6.43 | 7.00 | 7.28 | Cc1csc(C2=CCC(C)(C)c3ccc(C#Cc4ccc(C(=O)O)cc4)cc32)n1 [Compound 31, 4-[(5,6-Dihydro-5,5-dimethyl-8-(4-methylthiazol-2-yl)-2-naphthalenyl)ethynyl]benzoic acid] |
|  | 6.77 | 7.05 | Cc1nc(C2=CCC(C)(C)c3ccc(C#Cc4ccc(C(=O)O)cc4)cc32)sc1C [Compound 32] |
| 7.28 | 7.77 | 7.52 | Cc1ccc(C2=CCC(C)(C)c3ccc(C#Cc4ccc(C(=O)O)cc4)cc32)s1 [Compound 34, 4-[(5,6-Dihydro-5,5-dimethyl-8-(5-methyl-2-thienyl)-2-naphthalenyl)ethynyl]benzoic acid] |
| 7.89 |  | 6.26 | Cc1ccc(C2=CCC(C)(C)c3ccc(C(=O)Nc4ccc(C(=O)O)cc4)cc32)cc1 [Compound 36, 4-[[(5,6-Dihydro-5,5-dimethyl-8-(4-methylphenyl)-2-naphthalenyl)carbonyl]amino]-benzoic acid] |
| 7.17 | 6.95 | 7.42 | Cc1ccc(C2=CCC(C)(C)c3ccc(C(=O)Oc4ccc(C(=O)O)cc4)cc32)cc1 [Compound 39, 4-[[(5,6-Dihydro-5,5-dimethyl-8-(4-methylphenyl)-2-naphthalenyl)carbonyl]oxy]-benzoic acid] |
| 8.29 | 6.14 | 6.31 | Cc1ccc(C2=CCC(C)(C)c3ccc(C(=O)Nc4ccc(C(=O)O)c(F)c4)cc32)cc1 [Compound 41, 2-Fluoro-4-[[(5,6-dihydro-5,5-dimethyl-8-(4methylphenyl)-2-naphthalenyl)carbonyl]amino]-benzoic acid] |
| 7.92 | 7.77 | 8.55 | Cc1ccc(C2=CCC(C)(C)c3ccc(/C=C/c4ccc(C(=O)O)cc4)cc32)cc1 [Compound 45] |
| 6.88 |  | 5.49 | Cc1ccc(C2=CCC(C)(C)c3ccc(C(=S)Nc4ccc(C(=O)O)c(F)c4)cc32)cc1 [Compound 63, 2-fluoro-4-[[(5,6-dihydro-5,5-dimethyl-8-(4-methylphenyl)-2-naphthalenyl)thiocarbonyl]amino]-benzoic acid] |
